Reference: patent US20210253557A1, “SUBSTITUTED TRIAZOLE DERIVATIVES AND USES THEREOF” (Bayer Pharma Aktiengesellschaft, priority 2017, published 2021)
pIC50: −log10 of the molar value. Counter-ions that a name gives are not always drawn.

Key:
human V2 receptor = molecular target: T1, human V2 receptor (Homo sapiens, UniProt P30518); assay: Cellular in vitro assay for determining vasopressin receptor activity (V2, CRE-luciferase); format: cell-based; conditions: CHO cell line transfected with the human V2 receptor; [Arg8]-vasopressin at EC50 concentration; read-out: IC50 hV2
T1 construct: expressed in transfected cells; host or cells: CHO K1 (ATCC) expressing firefly luciferase under a CRE-responsive promoter
How it was run: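 Antagonism was measured as inhibition of a 3-h, EC50-level [Arg8]-vasopressin stimulation, with compounds tested at several concentrations, yielding IC50 values. The read-out was cAMP-driven CRE-luciferase luminescence after lysis, in recombinant CHO K1 cells carrying human V2 receptor. Cells were seeded in 2% FCS DMEM/F12 one day earlier.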

human V1a receptor = molecular target: T2, human V1a receptor (Homo sapiens, UniProt P37288); assay: Cellular in vitro assay for determining vasopressin receptor activity (V1a, aequorin luminescence); format: cell-based; conditions: for pIC50: CHO cell line transfected with the human V1a receptor, [Arg8]-vasopressin at EC50 concentration, read-out: IC50 hV1a; for ratio IC50 hV2/hV1a: selectivity ratio of IC50 hV2 to IC50 hV1a
T2 construct: expressed in transfected cells; host or cells: CHO K1 (ATCC), also stably transfected with a modified aequorin
T2 sequence (P37288 whole entry): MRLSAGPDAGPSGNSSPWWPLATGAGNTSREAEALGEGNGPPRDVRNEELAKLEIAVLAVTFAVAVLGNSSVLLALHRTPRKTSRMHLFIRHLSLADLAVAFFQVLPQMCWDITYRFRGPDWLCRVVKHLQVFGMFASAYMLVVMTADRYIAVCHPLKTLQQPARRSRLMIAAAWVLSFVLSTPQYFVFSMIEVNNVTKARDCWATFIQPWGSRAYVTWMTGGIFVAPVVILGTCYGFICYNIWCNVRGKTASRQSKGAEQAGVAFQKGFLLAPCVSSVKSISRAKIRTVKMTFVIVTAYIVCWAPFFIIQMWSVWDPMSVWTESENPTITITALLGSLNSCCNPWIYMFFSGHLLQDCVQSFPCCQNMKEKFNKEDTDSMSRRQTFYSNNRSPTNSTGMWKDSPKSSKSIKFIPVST

T1 sequence (P30518 whole entry): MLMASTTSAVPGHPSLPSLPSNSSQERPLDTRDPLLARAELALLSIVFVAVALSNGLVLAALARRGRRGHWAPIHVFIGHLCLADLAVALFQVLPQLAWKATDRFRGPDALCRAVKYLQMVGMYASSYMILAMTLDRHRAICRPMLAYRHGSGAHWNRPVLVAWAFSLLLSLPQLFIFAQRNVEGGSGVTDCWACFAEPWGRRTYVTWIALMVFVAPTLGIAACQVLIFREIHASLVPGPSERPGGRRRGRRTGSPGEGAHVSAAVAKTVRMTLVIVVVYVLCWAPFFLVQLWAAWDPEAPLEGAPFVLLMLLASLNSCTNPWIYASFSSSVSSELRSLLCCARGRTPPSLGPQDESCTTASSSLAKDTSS

SMILES	pIC50 (human V2 receptor)	pIC50 (human V1a receptor)	ratio IC50 hV2/hV1a (human V1a receptor)
CCNC(=O)OCc1nc(Cn2nc(-c3ccc(Cl)cc3)n(C[C@H](O)C(F)(F)F)c2=O)nn1-c1cccc(F)c1 [Example 43, [3-({3-(4-Chlorophenyl)-5-oxo-4-[(2S)-3,3,3-trifluoro-2-hydroxypropyl]-4,5-dihydro-1H-1,2,4-triazol-1-yl}methyl)-1-(3-fluorophenyl)-1H-1,2,4-triazol-5-yl]methyl Ethylcarbamate]	8.23	8.25	1.1
COCCNC(=O)OCc1nc(Cn2nc(-c3ccc(Cl)cc3)n(C[C@H](O)C(F)(F)F)c2=O)nn1-c1cccc(F)c1 [Example 44, [3-({3-(4-Chlorophenyl)-5-oxo-4-[(2S)-3,3,3-trifluoro-2-hydroxypropyl]-4,5-dihydro-1H-1,2,4-triazol-1-yl}methyl)-1-(3-fluorophenyl)-1H-1,2,4-triazol-5-yl]methyl (2-methoxyethyl)carbamate]	8.10	7.56	0.3
O=C(NCC(F)(F)F)OCc1nc(Cn2nc(-c3ccc(Cl)cc3)n(C[C@H](O)C(F)(F)F)c2=O)nn1-c1cccc(F)c1 [Example 45, [3-({3-(4-Chlorophenyl)-5-oxo-4-[(2S)-3,3,3-trifluoro-2-hydroxypropyl]-4,5-dihydro-1H-1,2,4-triazol-1-yl}methyl)-1-(3-fluorophenyl)-1H-1,2,4-triazol-5-yl]methyl (2,2,2-trifluoroethyl)-carbamate]	8.29	7.95	0.5
CNC(=O)OCc1nc(Cn2nc(-c3ccc(Cl)cc3)n(C[C@H](O)C(F)(F)F)c2=O)nn1-c1cccc(F)c1 [Example 46, [3-({3-(4-Chlorophenyl)-5-oxo-4-[(2S)-3,3,3-trifluoro-2-hydroxypropyl]-4,5-dihydro-1H-1,2,4-triazol-1-yl}methyl)-1-(3-fluorophenyl)-1H-1,2,4-triazol-5-yl]methyl Methylcarbamate]	8.03	8.19	1.5
CCNC(=O)OCc1nc(Cn2nc(-c3ccc(Cl)cc3)n(C[C@H](O)C(F)(F)F)c2=O)nn1-c1ccccc1Cl [Example 47, [1-(2-Chlorophenyl)-3-({3-(4-chlorophenyl)-5-oxo-4-[(2S)-3,3,3-trifluoro-2-hydroxypropyl]-4,5-dihydro-1H-1,2,4-triazol-1-yl}methyl)-1H-1,2,4-triazol-5-yl]methyl Ethylcarbamate]	8.15	9.37	16.6
COCCNC(=O)OCc1nc(Cn2nc(-c3ccc(Cl)cc3)n(C[C@H](O)C(F)(F)F)c2=O)nn1-c1ccccc1Cl [Example 48, [1-(2-Chlorophenyl)-3-({3-(4-chlorophenyl)-5-oxo-4-[(2S)-3,3,3-trifluoro-2-hydroxypropyl]-4,5-dihydro-1H-1,2,4-triazol-1-yl}methyl)-1H-1,2,4-triazol-5-yl]methyl (2-methoxyethyl)carbamate]	8.23	8.95	5.3
CCNC(=O)OCc1nc(Cn2nc(-c3ccc(Cl)cc3)n(C[C@H](O)C(F)(F)F)c2=O)nn1-c1ccccc1C(F)(F)F [Example 49, {3-({3-(4-Chlorophenyl)-5-oxo-4-[(2S)-3,3,3-trifluoro-2-hydroxypropyl]-4,5-dihydro-1H-1,2,4-triazol-1-yl}methyl)-1-[2-(trifluoromethyl)phenyl]-1H-1,2,4-triazol-5-yl}methyl ethylcarbamate]	7.78	9.00	16.9
CCNC(=O)OCc1nc(Cn2nc(-c3ccc(Cl)cc3)n(C[C@H](OC(=O)NCC)C(F)(F)F)c2=O)nn1-c1ccccc1C(F)(F)F [Example 50, (2S)-3-{3-(4-Chlorophenyl)-1-[(5-{[(ethylcarbamoyl)oxy]methyl}-1-[2-(trifluoromethyl)phenyl]-1H-1,2,4-triazol-3-yl)methyl]-5-oxo-1,5-dihydro-4H-1,2,4-triazol-4-yl}-1,1,1-trifluoropropan-2-yl ethylcarbamate]	7.66	9.02	23.0
COCCNC(=O)OCc1nc(Cn2nc(-c3ccc(Cl)cc3)n(C[C@H](O)C(F)(F)F)c2=O)nn1-c1ccccc1C(F)(F)F [Example 51, {3-({3-(4-Chlorophenyl)-5-oxo-4-[(2S)-3,3,3-trifluoro-2-hydroxypropyl]-4,5-dihydro-1H-1,2,4-triazol-1-yl}methyl)-1-[2-(trifluoromethyl)phenyl]-1H-1,2,4-triazol-5-yl}methyl (2-methoxyethyl)-carbamate]	7.53	8.41	7.6
NC(=O)OCc1nc(Cn2nc(-c3ccc(Cl)cc3)n(C[C@H](O)C(F)(F)F)c2=O)nn1-c1ccccc1C(F)(F)F [Example 52, {3-({3-(4-Chlorophenyl)-5-oxo-4-[(2S)-3,3,3-trifluoro-2-hydroxypropyl]-4,5-dihydro-1H-1,2,4-triazol-1-yl}methyl)-1-[2-(trifluoromethyl)phenyl]-1H-1,2,4-triazol-5-yl}methyl Carbamate]	7.85	8.67	6.5
C[C@H](NC(=O)OC(C)(C)C)c1nc(Cn2nc(-c3ccc(Cl)cc3)n(C[C@H](O)C(F)(F)F)c2=O)nn1-c1cccc(Cl)c1 [Example 56, tert-Butyl {(1S)-1-[1-(3-chlorophenyl)-3-({3-(4-chlorophenyl)-5-oxo-4-[(2S)-3,3,3-trifluoro-2-hydroxypropyl]-4,5-dihydro-1H-1,2,4-triazol-1-yl}methyl)-1H-1,2,4-triazol-5-yl]ethyl}Carbamate]	7.48	6.54	0.1
C[C@H](N)c1nc(Cn2nc(-c3ccc(Cl)cc3)n(C[C@H](O)C(F)(F)F)c2=O)nn1-c1cccc(Cl)c1 [Example 57, 2-({5-[(1S)-1-Aminoethyl]-1-(3-chlorophenyl)-1H-1,2,4-triazol-3-yl}methyl)-5-(4-chlorophenyl)-4-[(2S)-3,3,3-trifluoro-2-hydroxypropyl]-2,4-dihydro-3H-1,2,4-triazol-3-one hydrochloride]	8.89	7.88	0.1
COC(=O)N[C@@H](C)c1nc(Cn2nc(-c3ccc(Cl)cc3)n(C[C@H](O)C(F)(F)F)c2=O)nn1-c1cccc(Cl)c1 [Example 58, Methyl {(1S)-1-[1-(3-chlorophenyl)-3-({3-(4-chlorophenyl)-5-oxo-4-[(2S)-3,3,3-trifluoro-2-hydroxypropyl]-4,5-dihydro-1H-1,2,4-triazol-1-yl}methyl)-1H-1,2,4-triazol-5-yl]ethyl}Carbamate]	8.71	7.67	0.1
NC1(c2nc(Cn3nc(-c4ccc(Cl)cc4)n(C[C@H](O)C(F)(F)F)c3=O)nn2-c2ccccc2Cl)CC1 [Example 76, 2-{[5-(1-Aminocyclopropyl)-1-(2-chlorophenyl)-1H-1,2,4-triazol-3-yl]methyl}-5-(4-chlorophenyl)-4-[(2S)-3,3,3-trifluoro-2-hydroxypropyl]-2,4-dihydro-3H-1,2,4-triazol-3-one hydrochloride]	8.40	9.32	8.3
CC(=O)NC1(c2nc(Cn3nc(-c4ccc(Cl)cc4)n(C[C@H](O)C(F)(F)F)c3=O)nn2-c2ccccc2Cl)CC1 [Example 77, N-{1-[1-(2-Chlorophenyl)-3-({3-(4-chlorophenyl)-5-oxo-4-[(2S)-3,3,3-trifluoro-2-hydroxypropyl]-4,5-dihydro-1H-1,2,4-triazol-1-yl}methyl)-1H-1,2,4-triazol-5-yl]cyclopropyl}acetamide]	6.47	8.19	52.3
CS(=O)(=O)NC1(c2nc(Cn3nc(-c4ccc(Cl)cc4)n(C[C@H](O)C(F)(F)F)c3=O)nn2-c2ccccc2Cl)CC1 [Example 78, N-{1-[1-(2-Chlorophenyl)-3-({3-(4-chlorophenyl)-5-oxo-4-[(2S)-3,3,3-trifluoro-2-hydroxypropyl]-4,5-dihydro-1H-1,2,4-triazol-1-yl}methyl)-1H-1,2,4-triazol-5-yl]cyclopropyl}methane sulfonamide]	8.01	8.96	8.8
CN(C)C1(c2nc(Cn3nc(-c4ccc(Cl)cc4)n(C[C@H](O)C(F)(F)F)c3=O)nn2-c2ccccc2Cl)CC1 [Example 79, 5-(4-Chlorophenyl)-2-({1-(2-chlorophenyl)-5-[1-(dimethylamino)cyclopropyl]-1H-1,2,4-triazol-3-yl}methyl)-4-[(2S)-3,3,3-trifluoro-2-hydroxypropyl]-2,4-dihydro-3H-1,2,4-triazol-3-one]	7.84	9.00	14.5
O=C1CC[C@H](c2nc(Cn3nc(-c4ccc(Cl)cc4)n(C[C@H](O)C(F)(F)F)c3=O)nn2-c2ccccc2Cl)N1 [Example 101, 5-(4-Chlorophenyl)-2-({1-(2-chlorophenyl)-5-[(2R)-5-oxopyrrolidin-2-yl]-1H-1,2,4-triazol-3-yl}methyl)-4-[(2S)-3,3,3-trifluoro-2-hydroxypropyl]-2,4-dihydro-3H-1,2,4-triazol-3-one]	8.42	9.11	4.9
O=C1CC[C@@H](c2nc(Cn3nc(-c4ccc(Cl)cc4)n(C[C@H](O)C(F)(F)F)c3=O)nn2-c2ccccc2Cl)N1 [Example 102, 5-(4-Chlorophenyl)-2-({1-(2-chlorophenyl)-5-[(2S)-5-oxopyrrolidin-2-yl]-1H-1,2,4-triazol-3-yl}methyl)-4-[(2S)-3,3,3-trifluoro-2-hydroxypropyl]-2,4-dihydro-3H-1,2,4-triazol-3-one]	8.92	9.60	4.8
